Experiments:
Assay in all cases: Oxford cup inhibition zone test of antibacterial Hermetia illucens peptide
Assay type in all cases: cell-based
Details in all cases: positive control, 1 mg/ml of chloramphenicol
Escherichia coli = system: Escherichia coli
Excerpt: (§1) Article number (Art. No.) of Staphylococcus aureus: CICC 10306; Art. No. of Escherichia coli: CICC 10372; Art. No. of Vibrio alginolyticus: CICC 10484.
(§2) 1. Extraction of the Antibacterial Peptide of the Larval Hermetia Illucens Paste
(§3) (1) Preparation of an antibacterial peptide extraction solution (10% acetic acid and 0.01 mol/L Na2EDTA).
(§4) (2) The fermentation liquor of larval Hermetia illucens paste in the untreated group and the Aspergillus oryzae fermentation group of Example 2 was mixed with the antibacterial peptide extraction solution well (v: v=1:10), respectively, and liquid-solid extracted for half an hour at 200 rpm and 37° C., then transferred to a centrifugal machine (3500 rpm, 25 min); supernatant was collected as a crude extraction solution of the antibacterial peptide. The crude extraction solution was further frozen-dried to obtain the antibacterial Hermetia illucens peptide.
(§5) 2. Determination of Antibacteral Activity of the Antibacterial Hermetia Illucens Peptide
(§6) […] The concentration of the Staphylococcus aureus solution and Escherichia coli solution as well as Vibrio alginolyticus solution was determined 1.0×10^9 CFU/mL, 1.0×10^9 CFU/mL, and 1.0×10^7 CFU/mL, respectively; proper amount of the Staphylococcus aureus solution and Escherichia coli solution were absorbed and evenly coated on LB media, and the Vibrio alginolyticus solution was coated on a TCBS plate. An Oxford cup having a diameter of 7.5 mm was slightly placed on the LB plate, added with an equivalent amount of the antibacterial Hermetia illucens peptide, and cultured in a 37° C. thermostatic incubator for 10 hours, then the diameter of inhibition zones was observed and measured.

Staphylococcus aureus = system: Staphylococcus aureus
Excerpt: as §1, §2, §3, §4, §5, §6

Vibrio alginolyticus = system: Vibrio alginolyticus
Excerpt: as §1, §2, §3, §4, §5, §6

O=C(N[C@H](CO)[C@H](O)c1ccc([N+](=O)[O-])cc1)C(Cl)Cl [chloramphenicol]
Diameter of inhibition zone (Escherichia coli): 17 mm
Diameter of inhibition zone (Staphylococcus aureus): 16 mm
Diameter of inhibition zone (Vibrio alginolyticus): 26 mm
